{
  "source": "paper PMC5291098",
  "about": "“Molecular mutagenesis of ppGpp: turning a RelA activator into an inhibitor” (Scientific Reports, 2017)",
  "key": {"E. coli RelA [1]": {"biological_target": "T1, E. coli RelA (Escherichia coli, UniProt P0AG20)", "T1 construct": "made in house", "T1 sequence (P0AG20 whole entry)": "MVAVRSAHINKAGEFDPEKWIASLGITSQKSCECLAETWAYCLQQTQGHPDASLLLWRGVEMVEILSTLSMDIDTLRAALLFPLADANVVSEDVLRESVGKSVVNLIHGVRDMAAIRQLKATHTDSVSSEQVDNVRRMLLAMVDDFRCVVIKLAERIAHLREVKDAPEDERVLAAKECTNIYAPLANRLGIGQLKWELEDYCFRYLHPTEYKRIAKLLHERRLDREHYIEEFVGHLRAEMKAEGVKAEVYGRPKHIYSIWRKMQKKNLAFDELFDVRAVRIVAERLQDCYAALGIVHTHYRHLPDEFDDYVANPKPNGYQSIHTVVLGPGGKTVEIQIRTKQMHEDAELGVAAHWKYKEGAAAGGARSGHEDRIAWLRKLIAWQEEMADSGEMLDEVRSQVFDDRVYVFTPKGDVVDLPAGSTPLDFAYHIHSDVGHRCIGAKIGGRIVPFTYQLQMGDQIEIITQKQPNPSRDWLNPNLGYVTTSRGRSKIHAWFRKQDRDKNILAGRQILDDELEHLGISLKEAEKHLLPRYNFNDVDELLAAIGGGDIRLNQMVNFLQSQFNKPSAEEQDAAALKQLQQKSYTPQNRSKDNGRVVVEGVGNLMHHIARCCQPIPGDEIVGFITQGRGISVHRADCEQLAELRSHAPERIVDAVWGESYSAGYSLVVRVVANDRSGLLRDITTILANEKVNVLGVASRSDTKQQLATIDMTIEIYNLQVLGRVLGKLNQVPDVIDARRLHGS", "set-up": "method as in PMID 20483622", "details": "read-out: IC50 / concentration for 50% inhibition of E. coli RelA; in the test tube; cited from earlier work"}, "E. coli RelA [2]": {"biological_target": "T1, E. coli RelA", "test": "Inhibition of [3H]GDP to [3H]ppGpp conversion by E. coli RelA activated by vacant 70S ribosomes and 100 μM ppGpp", "format": "biochemical", "details": "for IC50: 30 nM RelA, 0.5 μM vacant 70S, 100 μM ppGpp; for nHill (Hill coefficient of the titration fit): Supplementary Table 1, 4-parameter logistic model", "protocol": "For the initial characterization of compounds, we followed the inhibition of [^3H] GDP conversion to [^3H] ppGpp catalyzed by E. coli RelA in a simplified system in which RelA’s activity was induced by vacant 70S ribosomes and 100 μM of ppGpp[15]. Unlabeled ppGpp was added to reaction mixtures in order to linearize the kinetics of [^3H] ppGpp synthesis due to an activating effect on the RelA enzyme. We used a targeted library of 69 nucleotides belonging to several structural classes: ‘true’ ppGpp analogues; Relacin and its derivatives; pyrrolidine, azetidine, piperidine and acyclic phosphonates. Chemical structures of tested compounds and titrations in the RelA:70S:ppGpp system are presented in Supplementary Table 1.\n(§1) Detailed description of experimental procedures can be found in Supplementary Text. Biochemical assays utilize in vitro translation[58] and stringent response[15] systems from E. coli purified components. Experiments were performed in HEPES:Polymix[58] buffer with either 5 (for enzymatically assembled initiation complexes) or 15 mM (for vacant 70 S, as well as non-enzymatically assembled programmed ribosomes) Mg^2+. Expression and purification of E. faecalis RelQ was performed as per Gaca (2015) and colleagues. GTPase and ppGpp synthesis were followed using TLC separation and radiochemical detection of ^3H-labelled nucleotides. Multiple round in vitro transcription assays were performed as per Bernardo et al.[49] with minor modifications. Inhibition efficiency (IC50) was calculated using 4-parameter logistic model (Hill equation) as per Sebaugh[60].\n(§2) Thin layer chromatography (TLC) analysis of nucleotide mixtures\n(§3) Both EF-G GTPase reaction and ppGpp synthesis by RelA were followed by TLC analysis followed by scintillation counting according to Mechold and colleagues, with modifications1. Time points from the reaction mixtures (5 μl, see below for details) were quenched by addition 4 μl 70% formic acid supplemented with a cold nucleotide standard used for UV-shadowing (10 mM GDP and 10 mM GTP) and spotted on PEI-TLC plates (Macherey-Nagel). TLC was run in buffer, plates dried, cut into sections guided by UV-shadowing and 3H radioactivity was quantified by scintillation counting in Optisafe-3 (Fisher) scintillation cocktail on Perkin Elmer Tricarb 2810TR counter. Conversion of substrate to product was quantified as described in Shyp et al. (2012)2.\nEnzymatic assays with E. coli RelA\nScreening: all experiments were performed in HEPES:Polymix, Mg2+ of 5 mM, 37 […]\nμM ppGpp was pre-incubated at 37° C for 2 min and then reaction started by addition of 1 mM ATP, time points (5 μl) taken, quenched with formic acid and analyzed by TLC. Inhibition efficiency (IC50) was calculated using 4-parameter logistic model (Hill equation) as per Sebaugh (2011)3. […]"}, "[3]": {"biological_target": "T2, E. faecalis SAS RelQ (RelQEf) (Enterococcus faecalis, UniProt Q830U9)", "T2 sequence (Q830U9 entry or part of it)": "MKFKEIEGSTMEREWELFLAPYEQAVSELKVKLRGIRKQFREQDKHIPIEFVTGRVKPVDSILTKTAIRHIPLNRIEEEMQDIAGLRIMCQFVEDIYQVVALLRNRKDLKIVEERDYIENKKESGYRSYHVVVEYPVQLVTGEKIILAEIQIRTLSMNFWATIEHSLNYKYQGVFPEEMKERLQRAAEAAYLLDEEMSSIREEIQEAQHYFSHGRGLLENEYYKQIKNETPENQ", "test": "Inhibition of E. faecalis SAS RelQ ppGpp synthesis", "format": "biochemical", "details": "concentrations up to 1 mM", "excerpt": "In E. coli, ppGpp is synthesized by the multi-domain RSHs RelA and SpoT, however, numerous single-domain RSHs – Small Alarmone Synthetases (SAS) – are widely distributed across bacterial taxa[3]. […] Therefore we tested the effects of DR-4250, DR-M014 and DR-5163 on RelQEf activity (Supplementary Figure 2).\nas §1\nRelQ activity0.4 RelQ activity0.4 RelQ activity0.4\nSupplementary Figure 2 | Inhibition of E. faecalis SAS RelQ by DR-4250, DR-\nM014 and DR-5163 is inefficient. The reaction mixture contains 0.25 µM RelQEf,\n300 µM [3H] GDP, 0.5 mg/ml BSA, 100 µM ppGpp, 1 mM ATP in Hepes:Polymix at […]"}, "E. coli EF-G": {"system": "T3, E. coli EF-G", "T3 construct": "made in house", "format": "biochemical", "protocol": "as §2\nas §3, with “(2012)2. […]” for “(2012)2.”\nGTPase assays with E. coli EF-G\nThe reaction mixture contained 0.5 μM 70S, 0.1 μM EF-G, in HEPES:Polymix (25 mM Hepes 7.5/ 1 mM DTT / 5 mM Mg2+) pre-incubated for 2 minutes at 37°C prior to addition of 300 μM [3H]GTP substrate (Hartman), after which time points (5 μl) taken, quenched with formic acid and analyzed by TLC (see above). […]"}, "ΔywaCΔyjbM B. subtilis": {"system": "ΔywaCΔyjbM B. subtilis", "test": "Growth of ΔywaCΔyjbM B. subtilis in valine drop-out S7 medium (functional test for Rel inhibition)", "format": "cell-based, Bacillus subtilis", "details": "up to 1 mM (0 to 1000 µM)", "excerpt": "Finally, we tested the three of our most promising inhibitors (DR-4250, DR-M014 and DR-5163) for RSH inhibition in bacterial culture. For this we used the Gram-positive bacterium B. subtilis due to its better uptake of compounds as compared to Gram-negative species such as E. coli[50]. The functional test for RSH inhibition relied on the auxotrophy of (p)ppGpp-deficient (ppGpp^0) B. subtilis for methionine and branched-chain amino acids valine, leucine and isoleucine. The B. subtilis RSH repertoire consists of one multi-domain ribosome-associated enzyme Rel and two SAS, YwaC and YjbM[3][52]. Because the SAS RelQEf is refractory to inhibition by our test compounds (Supplementary Figure 2), we used a B. subtilis strain lacking SASs (ΔywaCΔyjbM), in which the sole source of (p)ppGpp is Rel[53]. Defined S7 medium[54] lacking valine supports the growth of ΔywaCΔyjbM B. subtilis, but not the ppGpp^0 stain (Supplementary Figure 5). […] This is indicative of the test compounds failing to inhibit Rel and thereby rendering the strain phenotypically ppGpp^0 (Supplementary Figure 5). A lack of cellular uptake is a likely explanation. […]\nGrowth assays with Bacillus subtilis BSB1 wild type strain\nSAS deletion and ppGpp0 strain of B. subtilis5 were grown in S7 liquid medium6 except for amino acid requirements, which were met as described elsewhere 7. On 96-well plate, 90 µl of B subtilis starter culture was mixed with 10 µL of compound dilution (in 5 mM Tris pH 7.2) so that final OD600 was 0.025 (l = 1 cm).\nFollowing incubation was without shaking at 37°C and growth was monitored with Tecan Infinite M200 at OD600 (raw OD600 values are reported). B. subtilis starter culture was prepared as follows. Late exponential phase cells in S7, with full set of amino acids, were diluted ≈10-fold in S7 lacking either valine or lysine so that, after addition of 8% DMSO, OD600 was 0.25. Next, cell suspensions were aliquoted, frozen in liquid nitrogen, and stored at -80°C. Just before the experiment, cells were thawed on ice and appropriate amount of media was […]\nDywaC DyjbM BSB1 B. subtilis ppGpp0. BSB1 B. subtilis wild type strain as grown on S7 synthetic media8 drop-out media lacking valine which abolishes the growth of ppGpp0 (Drel DywaC DyjbM) strain due to valine auxotrophy (dashed line). […]\ninhibit the Rel and render the strain ppGpp0."}, "[4]": {"system": "T4, E. coli σ70-RNAP holoenzyme", "T4 construct": "purchased Epicentre", "test": "Multiple round in vitro transcription by σ70-RNAP (rrnB P1 and rna1 promoters)", "format": "biochemical, Escherichia coli", "details": "concentrations up to 5 mM; regardless of presence or absence of 2 μM DksA and 100 μM ppGpp", "quoted_text": "Next, we tested their effects on RNAP. […] We used multiple round in vitro transcription driven from the rrnB P1, a well-characterized ppGpp/DksA inhibited promoter, as described earlier[49]. The assays were performed in the presence and absence of 2 μM DksA and/or 100 μM ppGpp (Fig. 5a).\nEffect of inhibitors on rrnB P1 (−66 to +50) promoter transcription by RNAP. Graphs depicting inhibitor (0, 0.025, 0.05, 0.15, 0.4 and 0.6 mM) titrations performed at 30 °C in T-buffer with 0.5 nM template (σ^70-rrnB P1 promoter (pRLG6214)) and 5 nM σ^70-RNAP, in presence or absence of 100 μM ppGpp and/or 2 μM DksA. Error bars represent standard deviations of linear regression estimates, each experiment was performed at least three times.\nThe assays were performed as per Bernardo et al. (2006)4 with minor modifications. Reactions were carried out in T-buffer (50 mM Tris-HCl pH 7.5, 100 mM NaCl, 10 mM MgCl2, 1 mM dithiothreitol, 0.1 mM EDTA and 0.275 mg of BSA per ml) at 30°C. Inhibitors were titrated to final concentrations of 0, 0.025, 0.05, 0.15, 0.4 and 0.6 mM. E. coli s 70-RNAP holoenzyme (Epicentre, final concentration 5 nM) and template plasmid DNA containing s70-rrnB P1 promoter, (pRLG6214, final concentration 0.5 nM) was used for all experiments. Before initiation of transcription, E. coli s70-RNAP holoenzyme and T buffer were incubated at 30°C for 5 min. Above mix was added to predispensed mixture of inhibitor and the template plasmid DNA containing s70-rrnB P1 promoter (pRLG6214), incubated for further 20 min to initiate open complex formation. 2.5 µl of a mixture of ATP (ﬁnal concentration 0.5 mM), GTP and CTP (ﬁnal concentration 0.2 mM each), UTP (ﬁnal concentration 0.08 mM) and [a-32P]-UTP (5 µCi at > 3000 Ci/mmol, PerkinElmer) was added to initiate transcription by RNAP. After 7 min, 1 µl heparin (0.125 mg/ml ﬁnal concentration) was added to the reaction mixture to prevent re-initiation and further incubated for 5 min to allow completion of initiated transcripts. Transcription was terminated by addition of formamide loading buffer and samples were electrophoresed on a 7M urea-5% polyacrylamide gel and quantified by phosphorimaging."}, "[5]": {"biological_target": "T2, E. faecalis SAS RelQ (RelQEf)", "details": "found earlier; cited from earlier work"}, "Bacillus subtilis": {"system": "Bacillus subtilis", "set-up": "method as in PMID 20483622", "details": "mM-range concentrations; cited from earlier work"}, "[6]": {"system": "transcription or translation in E. coli reconstituted systems", "set-up": "method as in PMID 7047215", "details": "cited from earlier work"}, "[7]": {"biological_target": "70S initiation complexes programmed with mRNA(MF) (E. coli) (UniProt P0AG67)", "test": "co-sedimentation; spin-down assay: 2 uM RelA, 1 uM 70S initiation complexes programmed with mRNA(MF), with or without 3 uM deacylated tRNA-Phe and 500 uM DR-4250 or DR-M014; 37 C for 15 min; 30% sucrose cushion, 70,000 r.p.m., 25 min, 12 C; pellets on 10% SDS-PAGE; the stoichiometry is told for the sample with A-site deacylated tRNA-Phe"}, "[8]": {"details": "0.3 mM [3H]GDP, 1 mM ATP, read-out: IC50"}},
  "note": "Values joined by “and” are separate entries in the source; they are usually repeats but may differ in a detail not shown here. Equal values may be shown once. “Also recorded” adds a separate entry of the source. Read-outs that look alike come from different tables or passages of the source.",
  "data": [
    {"compound": "Nc1nc2c(ncn2[C@H]2C[C@H](OP(=O)(O)CP(=O)(O)O)[C@@H](COP(=O)(O)CP(=O)(O)O)O2)c(=O)[nH]1", "note": "[(10), 2′-deoxyguanosine-3′-5′-di(methylene bisphosphonate)]", "values": [
      {"measurement": "IC50", "setting": "E. coli RelA [1]", "result": "~1000 µM and 1000 µM"}
    ]},
    {"compound": "Nc1nc2c(ncn2CCNC(=O)P(=O)(O)O)c(=O)[nH]1", "note": "[DR-5163]", "values": [
      {"measurement": "IC50", "setting": "E. coli RelA [2]; [8]", "result": "0.245 ± 0.039", "unit": "mM"},
      {"measurement": "IC50", "setting": "E. coli RelA [2]; 5 mM Mg2+, 37 °C, no unit beside the value, titration axis in mM, read-out: IC50 (Supplementary Table 1, example titration)", "result": "0.25 ± 0.05", "unit": "mM"},
      {"measurement": "nHill (Hill coefficient of the titration fit)", "setting": "E. coli RelA [2]", "result": "1.3 ± 0.26"},
      {"measurement": "Effect on RelQEf activity (in words)", "setting": "[3]", "result": "inefficient; also recorded: almost inactive"},
      {"measurement": "Inhibitory effect on EF-G GTPase activity (in words)", "setting": "E. coli EF-G; up to 1 mM", "result": "no inhibitory effect"},
      {"measurement": "Effect on growth of ΔywaCΔyjbM B. subtilis (in words)", "setting": "ΔywaCΔyjbM B. subtilis", "result": "did not affect bacterial growth; also recorded: does not affect the growth"}
    ]},
    {"compound": "CC(C)C(=O)Nc1nc2c(ncn2[C@H]2C[C@H](OC(=O)NCC(=O)NCC(=O)O)[C@@H](COC(=O)NCC(=O)NCC(=O)O)O2)c(=O)[nH]1", "note": "[Relacin, reference compound]", "values": [
      {"measurement": "IC50", "setting": "E. coli RelA [2]; [8]", "result": "0.84 ± 0.2", "unit": "mM"},
      {"measurement": "nHill (Hill coefficient of the titration fit)", "setting": "E. coli RelA [2]", "result": "1.8 ± 0.001"},
      {"measurement": "Inhibitory effect on EF-G GTPase activity (in words)", "setting": "E. coli EF-G; up to 5 mM", "result": "no inhibitory effect"},
      {"measurement": "Effect on rrnB P1 transcription by RNAP (in words)", "setting": "[4]", "result": "mild inhibitory effect"},
      {"measurement": "Sensitivity of RelQEf to Relacin (in words)", "setting": "[5]", "result": "virtually insensitive"},
      {"measurement": "Biological effect on Bacillus subtilis (in words)", "setting": "Bacillus subtilis", "result": "has a biological effect"}
    ]},
    {"compound": "Nc1ncnc2c1ncn2C1OC(COP(=O)(O)OP(=O)(O)O)C(OP(=O)(O)OP(=O)(O)O)C1O", "note": "(stereo not shown) [ppApp]", "values": [
      {"measurement": "IC50", "setting": "E. coli RelA [2]; [8]", "result": "0.0245 ± 0.0035", "unit": "mM"},
      {"measurement": "nHill (Hill coefficient of the titration fit)", "setting": "E. coli RelA [2]", "result": "0.7 ± 0.1"},
      {"measurement": "Activation of RelA's synthetic activity (in words)", "setting": "E. coli RelA [2]; ppGpp up to 100 μM, ppApp 50 µM-1 mM, thio-ppGpp 100 µM (Supplementary Figure 1)", "result": "do not activate; also recorded: neither ppApp nor 6-thio-ppGpp activate"},
      {"measurement": "Inhibitory effect on EF-G GTPase activity (in words)", "setting": "E. coli EF-G; up to 100 μM", "result": "no inhibitory effect"},
      {"measurement": "Inhibitory effect on transcription or translation (in words)", "setting": "[6]", "result": "does not have a pronounced inhibitory effect"}
    ]},
    {"compound": "Escherichia coli RelA (from UniProt P0AG20 1-744) (enzyme)", "values": [
      {"measurement": "stoichiometry N", "setting": "[7]", "result": 1}
    ]}
  ]
}
